Measurements taken from PubChem BioAssay AID248 (DTP/NCI, 2004).
Where “and” joins values, the source holds several entries; their conditions need not be identical. Equal entries are not always repeated. Inconclusive results and toxic doses are left out. Rule as the data show it: active = T/C of 150% or more; inactive = T/C below 125%.

System: L1210 leukemia ip in BDF1 mice, survival T/C
Experiment: NCI In Vivo Anticancer Drug Screen. Data for tumor model L1210 Leukemia (intraperitoneal) in B6D2F1 (BDF1) mice
Conditions: endpoint: mean survival time, higher = longer survival
Procedure, shortened: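 In this screen, tumor-bearing mice given compound are compared to those given vehicle, and their survival values are reported as a treated-to-control quotient.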

[1] = dose: 50.0 mg/kg/injection, schedule: Q01DX009 (ip), vehicle: saline
[2] = dose: 100.0 mg/kg/injection, schedule: Q01DX009 (ip), vehicle: saline
[3] = dose: 100.0 mg/kg/injection, schedule: Q04DX003 (ip), vehicle: saline
[4] = dose: 200.0 mg/kg/injection, schedule: Q01DX009 (ip), vehicle: saline
[5] = dose: 200.0 mg/kg/injection, schedule: Q04DX003 (ip), vehicle: saline
[6] = dose: 400.0 mg/kg/injection, schedule: Q01DX009 (ip), vehicle: saline
[7] = dose: 100.0 mg/kg/injection, schedule: Q04DX002 (ip), vehicle: saline with Tween-80
[8] = dose: 200.0 mg/kg/injection, schedule: Q04DX002 (ip), vehicle: saline with Tween-80
[9] = dose: 400.0 mg/kg/injection, schedule: Q04DX002 (ip), vehicle: saline with Tween-80
[10] = dose: 25.0 mg/kg/injection, schedule: Q01DX009 (ip), vehicle: saline
[11] = dose: 100.0 mg/kg/injection, schedule: Q01DX009 (ip), vehicle: saline with Tween-80
[12] = dose: 100.0 mg/kg/injection, schedule: Q04DX003 (ip), vehicle: saline with Tween-80
[13] = dose: 200.0 mg/kg/injection, schedule: Q01DX009 (ip), vehicle: saline with Tween-80
[14] = dose: 200.0 mg/kg/injection, schedule: Q04DX003 (ip), vehicle: saline with Tween-80
[15] = dose: 50.0 mg/kg/injection, schedule: Q01DX009 (ip), vehicle: saline with Tween-80
[16] = dose: 100.0 mg/kg/injection, schedule: Q04DX003 (ip), vehicle: Klucel (hydroxypropylcellulose) (HPC)
[17] = dose: 200.0 mg/kg/injection, schedule: Q04DX003 (ip), vehicle: Klucel (hydroxypropylcellulose) (HPC)
[18] = dose: 400.0 mg/kg/injection, schedule: Q04DX003 (ip), vehicle: Klucel (hydroxypropylcellulose) (HPC)

Measured: T/C

O=c1[nH]c2nc(Cl)c(Cl)nc2[nH]1
inactive: [1] 98 % of control | [2] 95 % of control and 96 % of control | [3] 94 % of control | [4] 108 % of control and 116 % of control | [5] 105 % of control | dose: 300.0 mg/kg/injection, schedule: Q01DX009 (ip), vehicle: saline 92 % of control | [6] 86 % of control

CCOC1=C(Br)C=CN(S(=O)(=O)c2ccc(C)cc2)c2ccccc21
inactive: [2] 97 % of control | [4] 94 % of control | [6] 93 % of control

O=C1c2cccc3cc([N+](=O)[O-])cc(c23)C(=O)N1C(Cc1ccccc1)c1ccccc1 (centres undefined)
inactive: [7] 103 % of control | [8] 95 % of control | [9] 103 % of control

C/C=C/c1ccc(O)c(OC)c1
inactive: [7] 92 % of control | [8] 86 % of control | [9] 86 % of control

CC1(C)N=C(N)N=C(N)N1c1cccc(C(=O)Nc2cccc(S(=O)(=O)F)c2)c1
inactive: dose: 6.25 mg/kg/injection, schedule: Q#A X018 (ip), vehicle: saline 97 % of control | dose: 12.5 mg/kg/injection, schedule: Q01DX009 (ip), vehicle: saline 103 % of control | dose: 12.5 mg/kg/injection, schedule: Q#A X018 (ip), vehicle: saline 101 % of control | [10] 101 % of control | dose: 25.0 mg/kg/injection, schedule: Q#A X018 (ip), vehicle: saline 101 % of control | [1] 95 % of control and 107 % of control | dose: 50.0 mg/kg/injection, schedule: Q#A X018 (ip), vehicle: saline 101 % of control | dose: 100.0 mg/kg/injection, schedule: Q01DX001 (ip), vehicle: saline 105 % of control | [2] 104 % of control | dose: 200.0 mg/kg/injection, schedule: Q01DX001 (ip), vehicle: saline 94 % of control

CN(C)[C@@H]1C(=O)C(C(=O)NCNCCCC(=O)O)=C(O)[C@@]2(O)C(=O)C3=C(O)c4c(O)cccc4[C@@](C)(O)[C@H]3C[C@@H]12
inactive: [2] 103 % of control | [3] 105 % of control | [4] 102 % of control | [5] 96 % of control | [6] 94 % of control | dose: 400.0 mg/kg/injection, schedule: Q04DX003 (ip), vehicle: saline 96 % of control

S=c1[nH]cc2cnccn12
inactive: [11] 103 % of control | [12] 98 % of control | [13] 100 % of control | [14] 100 % of control | dose: 400.0 mg/kg/injection, schedule: Q04DX003 (ip), vehicle: saline with Tween-80 89 % of control

CC(=O)C(C)(CCC#N)CCC#N
inactive: [15] 105 % of control | [11] 91 % of control | [12] 108 % of control | [14] 104 % of control

O=C(Nc1ccc(Nc2ccccc2)cc1)Nc1ccccc1Cl
inactive: dose: 100.0 mg/kg/injection, schedule: Q01DX009 (ip), vehicle: Klucel (hydroxypropylcellulose) (HPC) 90 % of control | [16] 95 % of control | dose: 200.0 mg/kg/injection, schedule: Q01DX009 (ip), vehicle: Klucel (hydroxypropylcellulose) (HPC) 90 % of control | [17] 92 % of control | dose: 400.0 mg/kg/injection, schedule: Q01DX009 (ip), vehicle: Klucel (hydroxypropylcellulose) (HPC) 92 % of control | [18] 90 % of control

O=c1c2ccccc2nc(CCN(CCCl)CCCl)n1-c1ccc(Cl)cc1
inactive: dose: 150.0 mg/kg/injection, schedule: Q04DX002 (ip), vehicle: Klucel (hydroxypropylcellulose) (HPC) 92 % of control | dose: 200.0 mg/kg/injection, schedule: Q04DX002 (ip), vehicle: Klucel (hydroxypropylcellulose) (HPC) 98 % of control | dose: 400.0 mg/kg/injection, schedule: Q04DX002 (ip), vehicle: Klucel (hydroxypropylcellulose) (HPC) 106 % of control

CC(=O)OC(CC(O)(C(F)(F)F)C(F)(F)F)C(C)(C)C (centres undefined)
inactive: [10] 104 % of control | [1] 102 % of control | [12] 98 % of control

CCCCC#CC(=O)OCCC
inactive: [12] 94 % of control | [14] 99 % of control

Cc1cc2c(N)[nH]c(=O)nc2s1
inactive: dose: 100.0 mg/kg/injection, schedule: Q04DX003 (ip), vehicle: water 90 % of control | dose: 200.0 mg/kg/injection, schedule: Q04DX003 (ip), vehicle: water 93 % of control

CC[n+]1ccc(Nc2ccc(NC(=O)c3ccc([N+](=O)[O-])cc3)cc2)cc1
inactive: dose: 12.5 mg/kg/injection, schedule: Q01DX009 (ip), vehicle: saline with Tween-80 100 % of control | dose: 25.0 mg/kg/injection, schedule: Q01DX009 (ip), vehicle: saline with Tween-80 91 % of control | [15] 88 % of control | dose: 100.0 mg/kg/injection, schedule: Q01DX001 (ip), vehicle: saline with Tween-80 100 % of control | [11] 92 % of control | dose: 200.0 mg/kg/injection, schedule: Q01DX001 (ip), vehicle: saline with Tween-80 110 % of control | dose: 400.0 mg/kg/injection, schedule: Q01DX001 (ip), vehicle: saline with Tween-80 98 % of control

OC1C2CCN(CC2)C1CNC12CC3CC(CC(C3)C1)C2 (centres undefined)
inactive: [3] 97 % of control | [5] 96 % of control

COC(=O)Cc1ccc(Br)cc1
inactive: [15] 106 % of control | [11] 98 % of control | [13] 88 % of control

FC(F)(Cl)c1nc2nc(Cl)c(Cl)nc2[nH]1
inactive: dose: 50.0 mg/kg/injection, schedule: Q01DX009 (ip), vehicle: other 96 % of control | dose: 100.0 mg/kg/injection, schedule: Q01DX009 (ip), vehicle: other 122 % of control | dose: 100.0 mg/kg/injection, schedule: Q04DX003 (ip), vehicle: other 114 % of control | dose: 200.0 mg/kg/injection, schedule: Q04DX003 (ip), vehicle: other 123 % of control | dose: 400.0 mg/kg/injection, schedule: Q04DX003 (ip), vehicle: other 96 % of control

CCCCCC(CN(C)C)C(=O)/C=C/c1ccccc1 (centres undefined)
inactive: dose: 50.0 mg/kg/injection, schedule: Q01DX009 (sc), vehicle: other 95 % of control | dose: 100.0 mg/kg/injection, schedule: Q01DX001 (sc), vehicle: steriod suspending solution 93 % of control | dose: 100.0 mg/kg/injection, schedule: Q01DX009 (sc), vehicle: other 102 % of control | dose: 100.0 mg/kg/injection, schedule: Q04DX003 (sc), vehicle: other 101 % of control | dose: 200.0 mg/kg/injection, schedule: Q01DX001 (sc), vehicle: steriod suspending solution 93 % of control | dose: 200.0 mg/kg/injection, schedule: Q04DX003 (sc), vehicle: other 90 % of control | dose: 400.0 mg/kg/injection, schedule: Q01DX001 (sc), vehicle: steriod suspending solution 100 % of control

CC(C)(O)CNC(=O)c1cccc([N+](=O)[O-])c1
inactive: [16] 94 % of control | [17] 88 % of control

C=C(Br)CNC(=O)NN1CCOCC1
inactive: dose: 100.0 mg/kg/injection, schedule: Q01DX001 (ip), vehicle: Klucel (hydroxypropylcellulose) (HPC) 115 % of control | [16] 95 % of control | dose: 200.0 mg/kg/injection, schedule: Q01DX001 (ip), vehicle: Klucel (hydroxypropylcellulose) (HPC) 111 % of control | [17] 98 % of control | dose: 400.0 mg/kg/injection, schedule: Q01DX001 (ip), vehicle: Klucel (hydroxypropylcellulose) (HPC) 102 % of control | [18] 97 % of control
